In article PMC12444472, “BCI inhibits MKP3 by targeting the kinase-binding domain and disrupting ERK2 interaction” (The Journal of Biological Chemistry, 2025):
Numbering of substitutions follows the chain as printed.

Experiments:
Assay in all cases: MST affinity of MKP3 mutant
Assay type in all cases: binding
Settings in all cases: full-length mutant
MKP3 E81G = target: T1, MKP3 E81G (Homo sapiens, UniProt Q16828, E81G)
T1 construct: MKP3(1–381) (MKP3^FL); made in house; host or cells: Escherichia coli BL21(DE3)
T1 sequence (Q16828 1-381 E81G): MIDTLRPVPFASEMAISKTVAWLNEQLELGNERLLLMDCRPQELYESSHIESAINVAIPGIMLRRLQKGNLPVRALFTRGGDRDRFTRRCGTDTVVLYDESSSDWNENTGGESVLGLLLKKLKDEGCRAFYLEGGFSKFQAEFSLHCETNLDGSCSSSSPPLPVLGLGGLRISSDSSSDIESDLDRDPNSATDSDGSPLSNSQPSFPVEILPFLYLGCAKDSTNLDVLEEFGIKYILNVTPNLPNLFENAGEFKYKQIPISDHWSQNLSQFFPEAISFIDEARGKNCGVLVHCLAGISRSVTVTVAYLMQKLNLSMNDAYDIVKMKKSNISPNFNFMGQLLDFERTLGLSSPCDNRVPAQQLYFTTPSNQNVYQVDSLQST
Method: (§1) MST measurements were performed using fluorescently labeled proteins and the inhibitor BCI (CAS: 1245792-51-1; TargetMol) on a Monolith instrument (NanoTemper Technologies). The RED–Tris–NTA second-generation dye was dissolved in MST buffer (20 mM Hepes, pH 7.4, 200 mM NaCl, and 0.05% Tween-20) to prepare a 5 μM stock solution. Fluorescent labeling of MKP proteins followed the standard protocol of the MO-L018 RED–Tris–NTA protein labeling kit, leveraging the His-tag–dye interaction.
(§2) The BCI compound was prepared as a 600 to 750 μM stock solution in MST buffer with 10% DMSO to enhance solubility, followed by a 16-point serial dilution. The diluted BCI solutions were thoroughly mixed with labeled MKP proteins (50 nM) at a 1:1 volume ratio, yielding a final volume of 10 μl. The reaction mixtures were incubated in the dark for 10 min at room temperature before being loaded into standard glass capillaries. Measurements were carried out on the Monolith instrument (100% LED, 40% IR laser power) with a 20 s laser on time. The normalized fluorescence values from triplicate measurements were averaged at each concentration and fitted to a 1:1 binding model using the KD model in MO.Affinity software (v3.0.5, NanoTemper Technologies) to determine the binding affinities between MKP proteins and the BCI inhibitor. The final reported Kd value represents the mean ± SD of Kd values obtained from three independent experiments, each fitted separately.
(§3) Figure S3. Affinity measurements of MKP3 mutants with BCI by MST. The binding affinities of full-length MKP3 mutants (E81G, R83G, R85G, R87G, and R89A) to BCI were determined by MST and are presented as mean ± SD (n = 3). Wild-type MKP3 (MKP3^WT) was included as a reference.

MKP3 R83G = target: T2, MKP3 R83G (Homo sapiens, UniProt Q16828, R83G)
T2 construct: MKP3(1–381) (MKP3^FL); made in house; host or cells: Escherichia coli BL21(DE3)
T2 sequence (Q16828 1-381 R83G): T1 sequence (Q16828 1-381 E81G) with G81E, R83G
Method: as §1, §2, §3

MKP3 R85G = target: T3, MKP3 R85G (Homo sapiens, UniProt Q16828, R85G)
T3 construct: MKP3(1–381) (MKP3^FL); made in house; host or cells: Escherichia coli BL21(DE3)
T3 sequence (Q16828 1-381 R85G): T1 sequence (Q16828 1-381 E81G) with G81E, R85G
Method: as §1, §2, §3

MKP3 R89A = target: T4, MKP3 R89A (Homo sapiens, UniProt Q16828, R89A)
T4 construct: MKP3(1–381) (MKP3^FL); made in house; host or cells: Escherichia coli BL21(DE3)
T4 sequence (Q16828 1-381 R89A): T1 sequence (Q16828 1-381 E81G) with G81E, R89A
Method: as §1, §2, §3

MKP3 T87G = target: T5, MKP3 T87G (Homo sapiens, UniProt Q16828, T87G)
T5 construct: MKP3(1–381) (MKP3^FL); made in house; host or cells: Escherichia coli BL21(DE3)
T5 sequence (Q16828 1-381 T87G): T1 sequence (Q16828 1-381 E81G) with G81E, T87G
Method: as §1, §2, §3

affinity for BCI compared with MKP3^WT (MKP3 E81G): significantly reduced affinity | affinity for BCI compared with MKP3^WT (MKP3 R83G): significantly reduced affinity | affinity for BCI compared with MKP3^WT (MKP3 R85G): affinities similar to the WT | affinity for BCI compared with MKP3^WT (MKP3 R89A): significantly reduced affinity | affinity for BCI compared with MKP3^WT (MKP3 T87G): affinities similar to the WT
SMILES: O=C1/C(=C/c2ccccc2)C(NC2CCCCC2)c2ccccc21 (centres unmarked) [BCI, (E)-2-benzylidene-3-(cyclohexylamino)-2,3-dihydro-1H-inden-1-one]
